Experimental data: US11091511B2, “Panaxdiol-type ginsenoside derivative, preparation method therefor and use thereof” (ARMY MEDICAL UNIVERSITY, priority 2016, dated 2021)
Marks after values point to notes of the source that are not given here.

Columns and labels:
apoE−/− mice [1] = experiment: Atherosclerotic plaque area to total aortic area in apoE-/- mice on high-fat diet (Sudan IV staining); format: in vivo, mouse; details: intragastric 15 weeks, compounds 30 mg/(kg·d), simvastatin 10 mg/(kg·d), x ± s, n = 5, saline control 14.67 ± 3.58
Description: The effects of the compounds prepared in Examples 1-30 of the present invention on the percentages of areas of atherosclerotic plaque formation to the area of the entire artery in apoE−/− mice with a high-fat diet and the levels of low-density lipoprotein cholesterol and the levels of high-density lipoprotein, the specific steps are as follows: 1. animals: 160 ten-week-old, healthy and clean-grade apoE−/− mice (purchased from Peking University Experimental Animal Center), males, weight: 22-25 g, were housed in separate cages in a sterile laminar feeding room and fed freely. The mice were fed by a high-fat diet (conventional feed+0.15% cholesterol+21% lard) for 25 weeks, the room temperature was kept at 24° C., relative humidity: 50%, illumination time 7:30-19:30. 2. Grouping, administration method: after 10 weeks of feeding, the animals were divided into the following 32 groups (n=5) by weight in a balanced and random manner, and killed 15 weeks after administration. Normal saline control group: normal saline, intragastric administration. Positive control group: simvastatin 10 mg/(kg·d), intragastric administration. The compound groups prepared in Examples 1-30 of the present invention (30 groups in total): each was intragastric administered 30 mg/(kg·d). (1) Analysis of the area of atherosclerotic plaque and its percentage to total area: after the animals were killed, the aortas were separated, from the roots of the aortas to the terminal bifurcations of the abdominal aortas. After formalin fixation, the aortas were stained with Sudan IV, the red stained parts were the areas of atherosclerotic lesions. The percentage of the area of the lesion area to total area was calculated using Image Pro Plus 5.0 software. Data were expressed as x±s, and SPSS 10.0 line single-factor analysis of variance was performed among groups, a significant difference was indicated when p<0.05.

RAW264.7 cells = experiment: RAW264.7 cell survival rate by CCK8 method; format: cell-based, mouse; details: compound 10 prnol/L, 0.1% DMSO, CCK8, x ± s, n = 3, normal saline control = 1
Experimental: In order to further verify the toxicities of the compounds prepared in Examples 1-30 of the present invention, the mouse macrophage cell line RAW264.7 was cultured, and the compounds prepared in Examples 1-30 of the invention were prepared to a concentration of […] using culture medium, wherein the solvent was normal saline, the co-solvent was dimethyl sulfoxide (DMSO, the final concentratoin was 0.1%), and a 0.1% DMSO saline control group was provided. The cell survival rate was determined by CCK8 method. The data were expressed as x±s. SPSS 10.0 line single-factor analysis of variance was performed among groups. The difference was significant when p<0.05.

apoE−/− mice [2] = experiment: Blood lipids (LDL-C, HDL-C) in apoE-/- mice on high-fat diet; format: in vivo, mouse; details: apoE-/- mice serum, intragastric 15 weeks, compounds 30 mg/(kg·d), simvastatin 10 mg/(kg·d), x ± s; for HDL-C: n = 5, saline control 3.74 ± 0.62; for LDL-C: n = 5, saline control 7.33 ± 1.03
Description: The effects of the compounds prepared in Examples 1-30 of the present invention on the percentages of areas of atherosclerotic plaque formation to the area of the entire artery in apoE−/− mice with a high-fat diet and the levels of low-density lipoprotein cholesterol and the levels of high-density lipoprotein, the specific steps are as follows:
1. animals: 160 ten-week-old, healthy and clean-grade apoE−/− mice (purchased from Peking University Experimental Animal Center), males, weight: 22-25 g, were housed in separate cages in a sterile laminar feeding room and fed freely. The mice were fed by a high-fat diet (conventional feed+0.15% cholesterol+21% lard) for 25 weeks, the room temperature was kept at 24° C., relative humidity: 50%, illumination time 7:30-19:30.
2. Grouping, administration method:
after 10 weeks of feeding, the animals were divided into the following 32 groups (n=5) by weight in a balanced and random manner, and killed 15 weeks after administration.
Normal saline control group: normal saline, intragastric administration.
Positive control group: simvastatin 10 mg/(kg·d), intragastric administration.
The compound groups prepared in Examples 1-30 of the present invention (30 groups in total): each was intragastric administered 30 mg/(kg·d).
(2) Determination of the levels of total cholesterol (TC), low-density cholesterol lipoprotein (LDL-C) and high-density lipoprotein cholesterol (HDL-C): using ROCHE 7060 automatic biochemical analyzer for the determination.
Data were expressed as x±s, and SPSS 10.0 line single-factor analysis of variance was performed among groups, a significant difference was indicated when p<0.05.

TNF-α = experiment: Local TNF-α level in the arteries of apoE-/- mice (Millipore liquid phase chip); format: in vivo, mouse; details: high-fat diet, intragastric 15 weeks, compounds 30 mg/(kg·d), simvastatin 10 mg/(kg·d), x ± s, n = 5, saline control 25.58 ± 6.44
Description: The effects of the compounds prepared in Examples 1-30 of the present invention on the percentages of areas of atherosclerotic plaque formation to the area of the entire artery in apoE−/− mice with a high-fat diet and the levels of low-density lipoprotein cholesterol and the levels of high-density lipoprotein, the specific steps are as follows: 1. animals: 160 ten-week-old, healthy and clean-grade apoE−/− mice (purchased from Peking University Experimental Animal Center), males, weight: 22-25 g, were housed in separate cages in a sterile laminar feeding room and fed freely. The mice were fed by a high-fat diet (conventional feed+0.15% cholesterol+21% lard) for 25 weeks, the room temperature was kept at 24° C., relative humidity: 50%, illumination time 7:30-19:30. 2. Grouping, administration method: after 10 weeks of feeding, the animals were divided into the following 32 groups (n=5) by weight in a balanced and random manner, and killed 15 weeks after administration. Normal saline control group: normal saline, intragastric administration. Positive control group: simvastatin 10 mg/(kg·d), intragastric administration. The compound groups prepared in Examples 1-30 of the present invention (30 groups in total): each was intragastric administered 30 mg/(kg·d). (3) Determination of TNF-α level: Millipore liquid phase chip method was used for the determination (Mcytomag-70K-3, Mouse Cytokine/Chemokine Magnetic Bead Panel). Data were expressed as x±s, and SPSS 10.0 line single-factor analysis of variance was performed among groups, a significant difference was indicated when p<0.05.

[3] = test system: RAW264.7 cell-derived foam cells; experiment: Formation of RAW264.7 cell-derived foam cells (ox-LDL, oil red O, absorbance 490 nm); format: cell-based, mouse; details: 48 hours, model group = 100%, x ± s, n = 3
Experimental: The effects of the compounds prepared in Examples 1-30 of the present invention on the formation of RAW264.7 cell-derived foam cells, the specific steps are as follows:
1. Cell culture and foam cell model establishment:
RAW264.7 cells were cultured in DMEM culture medium with high glucose level (GIBCO) to a cell concentration of 1×10^6, planted in a 6-well plate, and 60 mg/L of ox-LDL (oxidized modified low-density lipoprotein, Peking Union Medical College) was added, foam cells were obtained after 48 hours of incubation.
2. Grouping and index detection:
The obtained foam cells were divided into 61 groups, 3 well plates were included in one group. After the treatment by adding the drugs (100 μL/well) for 48 hours, the medium was discarded, and after oil red 0 staining, the excess amount of oil red 0 was washed away. The cells were dissolved in isopropanol and the absorbance values were measured at 490 nm. The OD value of the model group was 100%, and the OD value of each group corrected by the number of cells was compared with the model group to obtain the ratio of intracellular lipid content. The larger the value, the more intracellular lipids, the higher the degree of formation of foam cells.
Normal saline control group: normal saline
Low dose groups of the compounds prepared in Examples 1-30 of the present invention:
10 μmol/L (solvents were normal saline).
High dose groups of compounds prepared in Examples 1-30 of the present invention: 30 μmol/L (solvents were normal saline).
Data were expressed as x±s, and SPSS 10.0 line single-factor analysis of variance was performed amoung groups, a significant difference was indicated when p<0.05.

Compound	Plaque area/total aorta area (%) (apoE−/− mice [1])	Cell Survival Rate (RAW264.7 cells)	HDL-C (apoE−/− mice [2])	LDL-C (apoE−/− mice [2])	TNF-α level (ng/g) (TNF-α)	Foam cell formation (%) ([3]; dose 10 μmol/L)	Foam cell formation (%) ([3]; dose 30 μmol/L)
CC(=O)OC1CC2[C@@]3(C)CC[C@H](OC(C)=O)C(C)(C)C3CC[C@@]2(C)[C@]2(C)CCC([C@](C)(CCC=C(C)C)OC(C)=O)[C@@H]12 (stereo partly drawn) [Compound 16]	10.41 ± 2.09 ^a %	0.88 ± 0.01	4.12 ± 0.90 ^a mmol/L	5.18 ± 1.26 ^a mmol/L	15.94 ± 4.29 ^a ng/g	81 ± 12%	72 ± 21 ^a %
CC(=O)OC1CC2[C@@]3(C)CC[C@H](OC(C)=O)C(C)(C)C3CC[C@@]2(C)[C@]2(C)CCC([C@](C)(CCC3OC3(C)C)OC(C)=O)[C@@H]12 (stereo partly drawn) [Compound 17]	8.53 ± 2.57 ^a %	0.87 ± 0.07	5.55 ± 0.56 ^a mmol/L	4.83 ± 1.51 ^a mmol/L	15.27 ± 4.65 ^a ng/g	70 ± 15 ^a %	55 ± 21 ^a %
CC(=O)OC1CC2[C@@]3(C)CC[C@H](OC(C)=O)C(C)(C)C3CC[C@@]2(C)[C@]2(C)CCC([C@](C)(CCC=O)OC(C)=O)[C@@H]12 (stereo partly drawn) [Compound 18]	9.15 ± 2.85 ^a %	0.85 ± 0.08	4.72 ± 0.91 ^a mmol/L	6.15 ± 1.28 mmol/L	16.65 ± 4.57 ^a ng/g	84 ± 16%	76 ± 14 ^a %
COC(=O)[C@H](CC(C)C)NCCC[C@](C)(OC(C)=O)C1CC[C@]2(C)[C@@H]1C(OC(C)=O)CC1[C@@]3(C)CC[C@H](OC(C)=O)C(C)(C)C3CC[C@]12C (stereo partly drawn) [Compound 19]	8.34 ± 2.41 ^a %	0.91 ± 0.07	5.13 ± 0.83 ^a mmol/L	4.62 ± 1.34 ^a mmol/L	11.23 ± 3.69 ^a ng/g	63 ± 18 ^a %	43 ± 9 ^a %
COC(=O)[C@@H](NCCC[C@](C)(OC(C)=O)C1CC[C@]2(C)[C@@H]1C(OC(C)=O)CC1[C@@]3(C)CC[C@H](OC(C)=O)C(C)(C)C3CC[C@]12C)C(C)C (stereo partly drawn) [Compound 20]	9.67 ± 2.98 ^a %	1.02 ± 0.13	4.72 ± 0.52 ^a mmol/L	6.62 ± 0.89 mmol/L	15.98 ± 5.33 ^a ng/g	79 ± 15 ^a %	63 ± 14 ^a %
COC(=O)[C@H](NCCC[C@](C)(OC(C)=O)C1CC[C@]2(C)[C@@H]1C(OC(C)=O)CC1[C@@]3(C)CC[C@H](OC(C)=O)C(C)(C)C3CC[C@]12C)[C@@H](C)O (stereo partly drawn) [Compound 21]	8.28 ± 3.29 ^a %	0.94 ± 0.17	5.82 ± 0.95 ^a mmol/L	4.31 ± 1.84 ^a mmol/L	10.76 ± 3.54 ^a ng/g	65 ± 15 ^a %	47 ± 13 ^a %
COC(=O)[C@H](CO)NCCC[C@](C)(OC(C)=O)C1CC[C@]2(C)[C@@H]1C(OC(C)=O)CC1[C@@]3(C)CC[C@H](OC(C)=O)C(C)(C)C3CC[C@]12C (stereo partly drawn) [Compound 22]	10.32 ± 2.74 ^a %	1.03 ± 0.15	4.29 ± 0.84 ^a mmol/L	6.31 ± 1.17 mmol/L	18.14 ± 6.82 ^a ng/g	76 ± 10 ^a %	65 ± 14 ^a %
COC(=O)CCC(NCCC[C@](C)(OC(C)=O)C1CC[C@]2(C)[C@@H]1C(OC(C)=O)CC1[C@@]3(C)CC[C@H](OC(C)=O)C(C)(C)C3CC[C@]12C)C(=O)OC (stereo partly drawn) [Compound 23]	8.64 ± 2.46 ^a %	1.01 ± 0.09	5.39 ± 0.61 ^a mmol/L	4.28 ± 1.46 ^a mmol/L	12.61 ± 374^a ng/g	68 ± 18 ^a %	47 ± 19 ^a %
COC(=O)CNCCC[C@](C)(OC(C)=O)C1CC[C@]2(C)[C@@H]1C(OC(C)=O)CC1[C@@]3(C)CC[C@H](OC(C)=O)C(C)(C)C3CC[C@]12C (stereo partly drawn) [Compound 24]	9.54 ± 2.65 ^a %	0.89 ± 0.14	4.68 ± 0.67 ^a mmol/L	5.65 ± 1.04 ^a mmol/L	15.47 ± 2.88 ^a ng/g	79 ± 18 ^a %	66 ± 16 ^a %
